Source: US20230023332A1, “OLEAN-PHENYLACRYLAMIDE DERIVATIVE, METHOD FOR PREPARING SAME, AND USE THEREOF” (Lunan Pharmaceutical Group Corporation, priority 2019, published 2023)
Read-outs that look alike come from different tables or passages of the source.

Key:
M-MDSC, PMN-MDSC = assay: Spleen M-MDSC / PMN-MDSC by flow cytometry in S180 tumor-bearing mice; assay type: in vivo, ICR mice; settings: 7 days; for M-MDSC: CD11b+LY6Chi+; for PMN-MDSC: CD11b+LY6G+
Description: (§1) 1) Experimental animals: 72 female ICR mice between 6 and 8 weeks of age; experimental cells: S180 ascitic tumor cells.
(§2) 8 animals were used as the normal group, and the rest of the mice were subjected to modeling by the following method.
(§3) 2) Proliferation and passaging of S180 ascitic tumor cells: S180 ascitic tumor cells cryopreserved at −80° C. were thawed in a water bath at 37° C., placed in a 12 mL centrifuge tube, to which an appropriate amount of saline was added, and centrifuged at 1200 rpm for 5 min. The supernatant was discarded, then the cells were resuspended in 300 μL of saline and intraperitoneally injected into an ICR mouse. As the mouse's abdomen swelled up, intraperitoneal injection of the cells in a second ICR mouse was performed, and the cells were ready for inoculation when the abdomen thereof swelled up.
(§4) 3) Inoculation of S180 tumor cells in the armpit of mice: S180 cells cultured to 2 passages were centrifuged and saline was added to obtain a concentration of 1×10^7 cells/mL. A volume of 100 μL of the cells were injected subcutaneously into armpit of mice. A mouse tumor-bearing model was developed.
(§5) The model mice were divided into a tumor-bearing model group, a compound I-7 5 mg/kg group, a compound I-7 15 mg/kg group, a compound I-12 5 mg/kg group, a compound I-12 15 mg/kg group, a compound I-16 5 mg/kg group, a compound I-16 15 mg/kg group and a CDDO-Me 15 mg/kg group.
(§6) There were 8 mice in each group.
(§7) 4) Dosing: the medicaments were administered intragastrically when the tumor grew out.
(§8) An equal volume of 0.5% croscarmellose sodium was administered to the normal group and the model group.
(§9) The dosing was executed for 7 consecutive days. The mice were dissected the next day following the last dosing.
(§10) Testing items: the body weight, spleen weight and tumor weight were measured. The spleens were ground on ice, followed by red blood cell lysis and incubation with FITC-CD11b, LY6C, and LY6G antibodies for 15 min, and then tested for CD11b+LY6Chi+ and CD11b+LY6G+ with flow cytometry.

[1] = tested on: human breast cancer cell strain MCF-7; assay: MTT proliferation inhibition, MCF-7; assay type: cell-based; settings: 48 h, read-out: Inhibitory activity (IC50) against proliferation, MCF-7
Description: (§11) The anti-tumor activity of the compounds of the present invention was determined by the method of methyl thiazolyl tetrazolium (MTT), Bardoxolone Methyl (CDDO-Me) being selected as a positive control medicament.
(§12) Instruments: ultra-clean bench (SW-CJ-1FD, AIRTECH, Suzhou Antai Airtech Co. Ltd.), constant-temperature CO2 incubator (3111, Thermo, USA), inverted biomicroscope (IX71, OLYMPUS, Japan), ELISA microplate reader (Model 680, BIO-RAD, USA), platform shaker (Kylin-bell lab Instruments), autoclave (YXO.SG4I.280, Shanghai Huaxian), and centrifuge (SIGMA).
(§13) Reagents: DMEM (GIBCO), fetal bovine serum (GIBCO), trypsin (SIGMA), and DMSO (SIGMA).
(§14) Cell strains: human non-small cell lung cancer cell strain A549, human liver cancer cell strain HepG2, human breast cancer cell strain MCF-7, human renal tubular epithelial cells HK-2, rat embryonic cardiomyocytes H9C2 (all provided by Jiangsu KeyGEN BioTECH Co., Ltd.).
(§15) Methods: the cryopreserved cell strains were resuscitated and cultured in a CO2 incubator at a constant temperature of 37° C. with liquid being changed once daily. Plating was carried out when the cell strains were in a good state in the exponential phase. 1 mL of 0.25% trypsin solution was added for digestion for 1-2 min. The cell status was observed under the microscope, and when the adherent cells became round and shrunk, the digestion solution was aspirated and 1-2 mL of a DMEM medium containing 10% fetal bovine serum was added to obtain a cell suspension, on which a cell count was performed. The amount of required cell suspension was calculated on the basis of 5×10^4 cells per well and the total number of wells. The cell suspension was inoculated on a 96-well plate at 100 μL/well, the surroundings being blocked with PBS, followed by incubation in a CO2 incubator at a constant temperature of 37° C. for 24 h.
(§16) The test medicament, positive control medicament CDDO-Me, and blank control group DMSO were prepared in DMEM media to a final concentration of 5 μM/well, each medicament being placed in 3 replicate wells, followed by incubation for 48 h. The MTT reagent was added to the 96-well plate at 10 μL/well to further incubate for 4 h. The medium in the plate was aspirated and 100 μL of DMSO was added to each well, followed by shaking on the platform shaker for 10 min such that the crystals were dissolved. The absorbance of each well was examined by the ELISA microplate reader at a wavelength of 570 nm, and the cell inhibition rate was calculated according to the formula hereinafter. The mean value of three preliminary screening results was taken as the final inhibition rate thereof.
(§17) Cell inhibition rate (%)=[(OD value of blank control−OD value of dosing cohort)/OD value of blank control group]×100%

[2] = tested on: human non-small cell lung cancer cell strain A549; assay: MTT proliferation inhibition, A549; assay type: cell-based; settings: A549 cells, 48 h, read-out: Inhibitory activity (IC50) against proliferation, A549
Description: as §11, §12, §13, §14, §15, §16, §17

[3] = tested on: human liver cancer cell strain HepG2; assay: MTT proliferation inhibition, HepG2; assay type: cell-based; settings: HepG2 cells, 48 h, read-out: Inhibitory activity (IC50) against proliferation, HepG2
Description: as §11, §12, §13, §14, §15
The MTT reagent was added to the 96-well plate at 10 μL/well to further incubate for 4 h. The medium in the plate was aspirated and 100 μL of DMSO was added to each well, followed by shaking on the platform shaker for 10 min such that the crystals were dissolved. […] The mean value of three preliminary screening results was taken as the final inhibition rate thereof.
as §17

[4] = tested on: rat embryonic cardiomyocytes H9C2; assay: MTT proliferation inhibition / toxicity, H9C2; assay type: cell-based; settings: for IC50: H9C2 cardiomyocytes, MTT, 48 h, read-out: Inhibitory activity (IC50) against proliferation, H9C2; for inhibitory activity against normal cardiomyocytes H9C2 relative to CDDO-Me: fraction of the inhibitory activity of CDDO-Me
Description: as §11, §12, §13, §14, §15, §16, §17

[5] = tested on: human renal tubular epithelial cells HK-2; assay: MTT proliferation inhibition / toxicity, HK-2; assay type: cell-based; settings: for IC50: HK-2 cells, MTT, 48 h, read-out: Inhibitory activity (IC50) against proliferation, HK-2; for toxicity to human renal tubular epithelial cells HK-2: statement in words
Description: as §11, §12, §13, §14, §15, §16, §17

S180 ascitic tumor cells = assay: Inhibitory effect on tumors in S180 tumor-bearing mice; assay type: in vivo, ICR mice; settings: for Tumor Mass / Tumor inhibition rate: 7 consecutive days; for Splenic index: 7 days
Description: as §1, §2, §3, §4, §5, §6, §7
Compound I-7 of 5 mg/kg was administered in the compound I-7 5 mg/kg group;
compound I-7 of 15 mg/kg was administered in the compound I-7 15 mg/kg group;
compound I-12 of 5 mg/kg was administered in the compound I-12 5 mg/kg group;
compound I-12 of 15 mg/kg was administered in the compound I-12 15 mg/kg group;
compound I-16 of 5 mg/kg was administered in the compound I-16 5 mg/kg group;
compound I-16 of 15 mg/kg was administered in the compound I-16 15 mg/kg group; and
CDDO-Me of 15 mg/kg was administered in the CDDO-Me 15 mg/kg group.
as §8, §9, §10

[6] = Homo sapiens, MCF7, MCF-7 cells

For COC(=O)[C@]12CCC(C)(C)C[C@H]1[C@H]1C(=O)C=C3[C@@]4(C)C=C(C#N)C(=O)C(C)(C)[C@@H]4CC[C@@]3(C)[C@]1(C)CC2 [CDDO-Me, 2-cyano-3,12-dioxoolean-1,9(11)-dien-28-oic acid methyl ester, reference compound], the M-MDSC (M-MDSC, PMN-MDSC; 15 mg/kg intragastric) was 1.15 ± 0.12 %, the PMN-MDSC (M-MDSC, PMN-MDSC; 15 mg/kg intragastric) was 10.91 ± 1.62 % and the IC50 ([1]; MCF-7 cells) was 728 ± 288 nM. For the same compound, the IC50 [2] was 448 ± 12 nM, the IC50 [3] was 326 ± 21 nM and the IC50 [4] was 308 ± 10 nM. The IC50 [5] was 335 ± 34 nM, the “Tumor Mass” value (S180 ascitic tumor cells; 15 mg/kg intragastric) was 1.67 ± 0.14 g and the Tumor inhibition rate (S180 ascitic tumor cells; 15 mg/kg intragastric) was 36.75%. The Splenic index (S180 ascitic tumor cells; 15 mg/kg intragastric) was 53.61 ± 4.15 10*mg/g.
With CC1(C)CC[C@]2(NC(=O)/C(C#N)=C/c3ccccc3)CC[C@]3(C)[C@H](C(=O)C=C4[C@@]5(C)C=C(C#N)C(=O)C(C)(C)[C@@H]5CC[C@]43C)[C@@H]2C1 [Compound I-7] the M-MDSC (M-MDSC, PMN-MDSC; 5 mg/kg intragastric) was 0.68 ± 0.22 %, the PMN-MDSC (M-MDSC, PMN-MDSC; 5 mg/kg intragastric) was 8.72 ± 1.13 % and the M-MDSC (M-MDSC, PMN-MDSC; 15 mg/kg intragastric) was 0.59 ± 0.09 %. It also gave a PMN-MDSC (M-MDSC, PMN-MDSC; 15 mg/kg intragastric) of 6.34 ± 1.47 %, an IC50 [1, 6] of 2225 ± 22 nM and an IC50 ([2]; Homo sapiens) of 315 ± 68 nM. For the same compound, the IC50 ([3]; Homo sapiens) was 2720 ± 36 nM, the IC50 [4] was 3170 ± 1740 nM and the IC50 ([4]; Rattus norvegicus, H9c2, 48 h) was 3180 ± 1740 nM. For the same compound, the “inhibitory activity against normal cardiomyocytes H9C2 relative to CDDO-Me” value [4] was “approximately 1/10”, the IC50 ([5]; Homo sapiens) was 1780 ± 259 nM and the “toxicity to human renal tubular epithelial cells HK-2” value (from here on “toxicity”) [5] was “lower toxicity”. For the same compound, the “Tumor Mass” value (S180 ascitic tumor cells; 5 mg/kg intragastric) was 1.53 ± 0.10 ^ g, the Tumor inhibition rate (S180 ascitic tumor cells; 5 mg/kg intragastric) was 42.17% and the Splenic index (S180 ascitic tumor cells; 5 mg/kg intragastric) was 48.55 ± 4.62^##* 10*mg/g. For the same compound, the “Tumor Mass” value (S180 ascitic tumor cells; 15 mg/kg intragastric) was 1.45 ± 0.12 g, the Tumor inhibition rate (S180 ascitic tumor cells; 15 mg/kg intragastric) was 45.20% and the Splenic index (S180 ascitic tumor cells; 15 mg/kg intragastric) was 47.03 ± 6.54^##* 10*mg/g.
Work on CC1(C)CC[C@]2(NC(=O)/C(C#N)=C/c3ccc(Cl)cc3)CC[C@]3(C)[C@H](C(=O)C=C4[C@@]5(C)C=C(C#N)C(=O)C(C)(C)[C@@H]5CC[C@]43C)[C@@H]2C1 [Compound I-12] yielded a M-MDSC (M-MDSC, PMN-MDSC; 5 mg/kg intragastric) of 0.63 ± 0.13 %, a PMN-MDSC (M-MDSC, PMN-MDSC; 5 mg/kg intragastric) of 8.86 ± 1.53 % and a M-MDSC (M-MDSC, PMN-MDSC; 15 mg/kg intragastric) of 0.38 ± 0.23 %. For the same compound, the PMN-MDSC (M-MDSC, PMN-MDSC; 15 mg/kg intragastric) was 4.82 ± 0.62 %, the IC50 [1, 6] was 1640 ± 462 nM and the IC50 ([2]; Homo sapiens) was 761 ± 32 nM. The IC50 ([3]; Homo sapiens) was 974 ± 58 nM, the IC50 ([4]; Rattus norvegicus) was 3140 ± 1530 nM and the “inhibitory activity against normal cardiomyocytes H9C2 relative to CDDO-Me” value [4] was “approximately 1/10”. For the same compound, the IC50 ([5]; Homo sapiens) was 2430 ± 33 nM, the “toxicity” value [5] was “lower toxicity” and the “Tumor Mass” value (S180 ascitic tumor cells; 5 mg/kg intragastric) was 1.33 ± 0.11 g. For the same compound, the Tumor inhibition rate (S180 ascitic tumor cells; 5 mg/kg intragastric) was 49.55%, the Splenic index (S180 ascitic tumor cells; 5 mg/kg intragastric) was 45.99 ± 7.68^##* 10*mg/g and the “Tumor Mass” value (S180 ascitic tumor cells; 15 mg/kg intragastric) was 0.66 ± 0.14 g. For the same compound, the Tumor inhibition rate (S180 ascitic tumor cells; 15 mg/kg intragastric) was 74.96% and the Splenic index (S180 ascitic tumor cells; 15 mg/kg intragastric) was 44.37 ± 5.27^###** 10*mg/g.
With CC1(C)CC[C@]2(NC(=O)/C=C(\C#N)c3ccc(C(F)(F)F)cc3)CC[C@]3(C)[C@H](C(=O)C=C4[C@@]5(C)C=C(C#N)C(=O)C(C)(C)[C@@H]5CC[C@]43C)[C@@H]2C1 [Compound I-16] the M-MDSC (M-MDSC, PMN-MDSC; 5 mg/kg intragastric) was 0.71 ± 0.08 %, the PMN-MDSC (M-MDSC, PMN-MDSC; 5 mg/kg intragastric) was 8.72 ± 2.09 % and the M-MDSC (M-MDSC, PMN-MDSC; 15 mg/kg intragastric) was 0.40 ± 0.07 %. The PMN-MDSC (M-MDSC, PMN-MDSC; 15 mg/kg intragastric) was 6.79 ± 1.55 %, the IC50 [1, 6] was 958 ± 209 nM and the IC50 ([2]; Homo sapiens) was 888 ± 21 nM. For the same compound, the IC50 ([3]; Homo sapiens) was 934 ± 11 nM, the IC50 ([4]; Rattus norvegicus) was 108 ± 7 nM and the IC50 ([5]; Homo sapiens) was 618 ± 72 nM. The “toxicity” value [5] was “lower toxicity”, the “Tumor Mass” value (S180 ascitic tumor cells; 5 mg/kg intragastric) was 1.49 ± 0.17 ^ g and the Tumor inhibition rate (S180 ascitic tumor cells; 5 mg/kg intragastric) was 43.69%. For the same compound, the Splenic index (S180 ascitic tumor cells; 5 mg/kg intragastric) was 47.86 ± 5.73^###* 10*mg/g, the “Tumor Mass” value (S180 ascitic tumor cells; 15 mg/kg intragastric) was 0.96 ± 0.14 g and the Tumor inhibition rate (S180 ascitic tumor cells; 15 mg/kg intragastric) was 63.60%. The Splenic index (S180 ascitic tumor cells; 15 mg/kg intragastric) was 46.45 ± 5.20^###* 10*mg/g.
